Results as given in patent US10611779B2, “Fused bicyclic heterocycle derivatives as pesticides” (Bayer CropScience Aktiengesellschaft, priority 2016, dated 2020).

Columns and labels:
Myzus persicae [1] = assay: Myzus persicae - spray test; type: in vivo; settings: application rate 100 g/ha; Chinese cabbage leaf discs, all stages; after 5 days
Description: Myzus persicae—Spray Test [table] To produce a suitable active ingredient formulation, 1 part by weight of active ingredient is dissolved with the specified parts by weight of solvent and made up to the desired concentration with water containing an emulsifier concentration of 1000 ppm. To produce further test concentrations, the formulation is diluted with emulsifier-containing water. Discs of Chinese cabbage leaves (Brassica pekinensis) infested by all stages of the green peach aphid (Myzus persicae) are sprayed with an active ingredient formulation of the desired concentration. After 5 days, the efficacy in % is determined. 100% means that all the aphids have been killed; 0% means that no aphids have been killed.

Myzus persicae [2] = assay: Myzus persicae - oral test; type: in vivo; settings: microtitre plate, after 5 days
Description: Myzus persicae—Oral Test [table] To produce a suitable active ingredient formulation, 1 part by weight of active ingredient is dissolved with the stated parts by weight of solvent and made up to the desired concentration with water. 50 μl of the active ingredient preparation are transferred into microtitre plates and made up to a final volume of 200 μl with 150 μl of IPL41 insect medium (33%+15% sugar). Subsequently, the plates are sealed with parafilm, which a mixed population of green peach aphids (Myzus persicae) within a second microtitre plate is able to puncture and imbibe the solution. After 5 days, the efficacy in % is determined. 100% means that all the aphids have been killed; 0% means that no aphids have been killed.

Phaedon cochleariae = Phaedon cochleariae - spray test; type: in vivo; settings: application rate 100 g/ha; Chinese cabbage leaf discs; after 7 days
Description: Phaedon cochleariae—Spray Test
(§1) To produce a suitable active ingredient formulation, 1 part by weight of active ingredient is dissolved with the specified parts by weight of solvent and made up to the desired concentration with water containing an emulsifier concentration of 1000 ppm. To produce further test concentrations, the formulation is diluted with emulsifier-containing water.
Discs of Chinese cabbage leaves (Brassica pekinensis) are sprayed with an active ingredient formulation of the desired concentration and, after drying, populated with larvae of the mustard beetle (Phaedon cochleariae).
After 7 days, the efficacy in % is determined. 100% means that all the beetle larvae have been killed; 0% means that no beetle larvae have been killed.

Spodoptera frugiperda = Spodoptera frugiperda - spray test; type: in vivo; settings: application rate 100 g/ha; maize leaf discs; after 7 days
Description: Spodoptera frugiperda—Spray Test [table] To produce a suitable active ingredient formulation, 1 part by weight of active ingredient is dissolved with the specified parts by weight of solvent and made up to the desired concentration with water containing an emulsifier concentration of 1000 ppm. To produce further test concentrations, the formulation is diluted with emulsifier-containing water. Leaf discs of maize (Zea mays) are sprayed with an active ingredient formulation of the desired concentration and, after drying, populated with caterpillars of the armyworm (Spodoptera frugiperda). After 7 days, the efficacy in % is determined. 100% means that all the caterpillars have been killed; 0% means that no caterpillar has been killed.

Ctenocephalides felis [3] = assay: Ctenocephalides felis - in vitro contact tests with adult cat fleas; type: in vivo; settings: application rate 5 μg/cm^2 (=500 g/ha), coated glass tube, after 48 h
Description: Ctenocephalides felis—In Vitro Contact Tests with Adult Cat Fleas For the coating of the test tubes, 9 mg of active ingredient are first dissolved in 1 ml of acetone p.a. and then diluted to the desired concentration with acetone p.a. 250 μl of the solution are distributed homogeneously on the inner walls and the base of a 25 ml glass tube by turning and rocking on an orbital shaker (rocking rotation at 30 rpm for 2 h). With 900 ppm of active ingredient solution and internal surface area 44.7 cm^2, given homogeneous distribution, an area-based dose of 5 μg/cm^2 is achieved. After the solvent has evaporated off, the tubes are populated with 5-10 adult cat fleas (Ctenocephalides felis), sealed with a perforated plastic lid and incubated in a horizontal position at room temperature and ambient humidity. After 48 h, efficacy is determined. To this end, the tubes are stood upright and the fleas are knocked to the base of the tube. Fleas which remain motionless at the base or move in an uncoordinated manner are considered to be dead or moribund. […] 100% efficacy means that all the fleas were dead or moribund. 0% efficacy means that no fleas were harmed.

Lucilia cuprina = Lucilia cuprina test; type: in vivo; settings: application rate 100 ppm; minced horsemeat; after 2 days
Description: Lucilia cuprina Test Solvent: dimethyl sulfoxide To produce a suitable active ingredient formulation, 10 mg of active ingredient are mixed with 0.5 ml of dimethyl sulfoxide, and the concentrate is diluted with water to the desired concentration. About 20 L1 larvae of the Australian sheep blowfly (Lucilia cuprina) are transferred into a test vessel containing minced horsemeat and the active ingredient formulation of the desired concentration. After 2 days, the kill in % is determined. 100% means that all the larvae have been killed; 0% means that no larvae have been killed.

Musca domestica = Musca domestica test; type: in vivo; settings: application rate 100 ppm; sponge with sugar solution; after 2 days
Description: Musca domestica Test Solvent: dimethyl sulfoxide To produce a suitable active ingredient formulation, 10 mg of active ingredient are mixed with 0.5 ml of dimethyl sulfoxide, and the concentrate is diluted with water to the desired concentration. Vessels containing a sponge treated with sugar solution and the active ingredient formulation of the desired concentration are populated with 10 adult houseflies (Musca domestica). After 2 days, the kill in % is determined. 100% means that all of the flies have been killed; 0% means that none of the flies have been killed.

[4] = log P (neutral) by HPLC on reversed-phase column (EEC Directive 79/831 Annex V.A8); type: physicochemical; settings: reversed-phase C18 HPLC column, reversed-phase C 18, 55° C., neutral range pH 7.8
Description: The log P values are measured according to EEC Directive 79/831 Annex V.A8 by HPLC (high-performance liquid chromatography) on a reversed-phase column (C 18). Temperature: 55° C. The LC-MS determination in the neutral range is effected at pH 7.8 with 0.001 molar aqueous ammonium hydrogencarbonate solution and acetonitrile as eluents; linear gradient from 10% acetonitrile to 95% acetonitrile. Called log P (neutral) in the table. Calibration is effected using unbranched alkan-2-ones (having 3 to 16 carbon atoms) with known log P values (log P values determined on the basis of the retention times by linear interpolation between two successive alkanones).

Tetranychus urticae = Tetranychus urticae - spray test, OP-resistant; type: in vivo; settings: application rate 20 g/ha; bean leaf discs, all stages; after 6 days
Description: Tetranychus urticae—Spray Test, OP-Resistant
as §1
Discs of bean leaves (Phaseolus vulgaris) infested with all stages of the greenhouse red spider mite (Tetranychus urticae) are sprayed with an active ingredient formulation of the desired concentration.
After 6 days, the efficacy in % is determined. 100% means that all the spider mites have been killed; 0% means that no spider mites have been killed.

Boophilus microplus = Boophilus microplus - injection test; type: in vivo; settings: application rate 20 μg/animal; injection into engorged adult female ticks; after 7 days
Description: Boophilus microplus—Injection Test Solvent: dimethyl sulfoxide To produce a suitable active ingredient formulation, 10 mg of active ingredient are mixed with 0.5 ml of solvent and the concentrate is diluted to the desired concentration with solvent. 1 μl of the active ingredient solution is injected into the abdomen of 5 engorged adult female cattle ticks (Boophilus microplus). The animals are transferred into dishes and kept in a climate-controlled room. Efficacy is assessed after 7 days by laying of fertile eggs. Eggs which are not visibly fertile are stored in a climate-controlled cabinet until the larvae hatch after about 42 days. An efficacy of 100% means that none of the ticks has laid any fertile eggs; 0% means that all the eggs are fertile.

Ctenocephalides felis [5] = assay: Ctenocephalides felis - oral test; type: in vivo; settings: application rate 100 ppm; in citrated cattle blood; after 2 days
Description: Ctenocephalides felis—Oral Test Solvent: dimethyl sulfoxide To produce a suitable active ingredient formulation, 10 mg of active ingredient are mixed with 0.5 ml of dimethyl sulfoxide. Dilution with citrated cattle blood gives the desired concentration. About 20 unfed adult cat fleas (Ctenocephalides felis) are placed into a chamber which is closed at the top and bottom with gauze. A metal cylinder whose bottom end is closed with parafilm is placed onto the chamber. The cylinder contains the blood/active ingredient formulation, which can be imbibed by the fleas through the parafilm membrane. After 2 days, the kill in % is determined. 100% means that all of the fleas have been killed; 0% means that none of the fleas have been killed.

Structure (SMILES) | efficacy (aphids killed) (Myzus persicae [1]) | efficacy (aphids killed) (Myzus persicae [2]; application rate 4 ppm) | efficacy (beetle larvae killed) (Phaedon cochleariae) | efficacy (caterpillars killed) (Spodoptera frugiperda) | efficacy (fleas dead or moribund) (Ctenocephalides felis [3]) | efficacy (kill of L1 larvae) (Lucilia cuprina) | efficacy (kill of adult houseflies) (Musca domestica) | chromatographic logP [4] | efficacy (spider mites killed) (Tetranychus urticae) | efficacy (aphids killed) (Myzus persicae [2]; application rate 20 ppm) | efficacy (no laying of fertile eggs) (Boophilus microplus) | efficacy (kill of fleas) (Ctenocephalides felis [5])
CCS(=O)(=O)c1c(-c2nc3cc(C(F)(F)F)cnc3n2C)nn2ccccc12 [Example I-4] | 90% | 100% | 100% | 100% | 100% | 100% | 90% |  |  |  |  | 
CCS(=O)(=O)c1c(-c2nc3cc(C(F)(F)F)ncc3n2C)nn2cccnc12 [Example I-2, 2-(3-Ethylsulfonylpyrazolo[1,5-a]pyrimidin-2-yl)-3-methyl-6-(trifluoromethyl)imidazo[4,5-c]-pyridine] | 90% | 100% |  |  |  |  |  | 1.58 | 90% | 100% |  | 
CCS(=O)(=O)c1c(-c2nc3cc(C(F)(F)F)ncc3n2C)nn2c(C)cc(C)nc12 [Example I-3, 3-Ethylsulfonyl-5,7-dimethyl-2-[3-methyl-6-(trifluoromethyl)imidazo[4,5-c]pyridin-2-yl]-pyrazolo[1,5-a]pyrimidine] | 100% | 100% |  |  |  | 97% |  | 2 |  | 100% | 100% | 100%
CCS(=O)(=O)c1c(-c2nc3cc(C(F)(F)F)cnc3n2C)nn2cc(Cl)ccc12 [Example I-6] | 90% | 100% | 100% | 100% |  |  |  |  |  |  |  | 
CCS(=O)(=O)c1c(-c2nc3cc(C(F)(F)F)ncc3n2C)nn2ccccc12 [Example I-1, 2-(3-Ethylsulfonylpyrazolo[1,5-a]pyridin-2-yl)-3-methyl-6-(trifluoromethyl)imidazo[4,5-c]pyridine] | 100% | 100% |  |  | 100% | 100% |  | 2.26 |  | 100% |  | 100%
CCS(=O)(=O)c1c(-c2nc3cc(C(F)(F)F)ncc3n2C)nn2cc(Cl)ccc12 [Example I-5] |  | 100% | 100% | 100% |  |  |  |  |  |  |  | 
Cn1c(-c2nn3ccccc3c2Br)nc2cc(C(F)(F)F)ncc21 [2-(3-Bromopyrazolo[1,5-a]pyridin-2-yl)-3-methyl-6-(trifluoromethyl)imidazo[4,5-c]pyridine] |  |  |  |  |  |  |  | 2.86 |  |  |  | 
